# Experiments:
# Format in all cases: cell-based
# BTK = BTK (Homo sapiens, UniProt Q06187); experiment: BTK degradation, DC50 and Dmax of Table 1 (cell line not given); set-up: endogenous in cells; conditions: for DC50: concentration giving 50% reduction of BTK expression level
# Mino cells = experiment: Antiproliferative effect, MTS cell viability assay, Mino cells; conditions: Homo sapiens, MINO, Mino mantle cell lymphoma cells; read-out: IC50 (anti-proliferation) Mino cells
# How it was run: (§1)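 Steps: seed B-cell lymphoma line; add compound at 0, 0.001, 0.01, 0.1, 1 or 10 μM; incubate 72 h; add MTS and read reduced tetrazolium (formazan) absorbance at 490 nm.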
# JeKo-1 cells = experiment: Antiproliferative effect, MTS cell viability assay, JeKo-1 cells; conditions: Homo sapiens; JeKo-1 mantle cell lymphoma cells; read-out: IC50 (anti-proliferation) JeKO-1 cells
# How it was run: as §1
# Chain of BTK (Q06187 whole entry): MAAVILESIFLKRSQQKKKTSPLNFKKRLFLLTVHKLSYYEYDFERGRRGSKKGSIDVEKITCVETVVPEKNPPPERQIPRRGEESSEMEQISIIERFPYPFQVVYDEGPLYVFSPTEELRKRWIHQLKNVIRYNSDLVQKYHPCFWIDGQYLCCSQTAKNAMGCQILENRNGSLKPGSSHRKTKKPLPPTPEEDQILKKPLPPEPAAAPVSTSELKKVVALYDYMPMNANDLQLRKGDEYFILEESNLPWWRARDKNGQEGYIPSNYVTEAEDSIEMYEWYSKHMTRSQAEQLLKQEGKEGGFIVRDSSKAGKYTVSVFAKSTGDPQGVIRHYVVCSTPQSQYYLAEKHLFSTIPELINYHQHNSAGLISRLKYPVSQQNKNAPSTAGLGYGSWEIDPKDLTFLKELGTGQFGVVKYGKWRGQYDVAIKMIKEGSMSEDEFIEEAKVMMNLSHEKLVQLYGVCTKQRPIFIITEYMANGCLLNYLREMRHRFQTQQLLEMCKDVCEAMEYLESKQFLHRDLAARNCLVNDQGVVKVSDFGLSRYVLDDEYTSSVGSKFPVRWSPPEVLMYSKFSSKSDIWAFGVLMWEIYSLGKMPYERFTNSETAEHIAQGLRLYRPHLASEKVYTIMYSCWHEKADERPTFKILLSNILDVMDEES
Structure (SMILES),Dmax (BTK) [%],DC50 (BTK) [nM],IC50 (Mino cells) [nM],IC50 (JeKo-1 cells) [nM]
"Nc1ncnc2c1c(-c1ccc(Oc3ccccc3)cc1)nn2C1CCCN(CCOCCOCCN2CCN(c3ccc4c(c3)CN(C3CCC(=O)NC3=O)C4=O)CC2)C1 (stereo not drawn) [Compound 4, 3-(5-(4-(2-(2-(2-(3-(4-amino-3-(4-phenoxyphenyl)-1H-pyrazolo[3,4-d]pyrimidin-1-yl)piperidin-1-yl)ethoxy)ethoxy)ethyl)piperazin-1-yl)-1-oxoisoindolin-2-yl)piperidine-2,6-dione]",> 90,< 10,1000 to 10000,1000 to 10000
"Nc1ncnc2c1c(-c1ccc(Oc3ccccc3)cc1)nn2C1CCN(CCOCCN2CCN(c3ccc4c(c3)CN(C3CCC(=O)NC3=O)C4=O)CC2)CC1 (stereo not drawn) [Compound 6, 3-(5-(4-(2-(2-(4-(4-amino-3-(4-phenoxyphenyl)-1H-pyrazolo[3,4-d]pyrimidin-1-yl)piperidin-1-yl)ethoxy)ethyl)piperazin-1-yl)-1-oxoisoindolin-2-yl)piperidine-2,6-dione]",> 90,10 to 50,< 1000,< 1000
"Nc1ncnc2c1c(-c1ccc(Oc3ccccc3)cc1)nn2C1CCN(CCOCCN2CCC(c3ccc4c(c3)CN(C3CCC(=O)NC3=O)C4=O)CC2)CC1 (stereo not drawn) [Compound 12, 3-(5-(1-(2-(2-(4-(4-amino-3-(4-phenoxyphenyl)-1H-pyrazolo[3,4-d]pyrimidin-1-yl)piperidin-1-yl)ethoxy)ethyl)piperidin-4-yl)-1-oxoisoindolin-2-yl)piperidine-2,6-dione]",> 90,10 to 50,< 1000,< 1000
"Nc1ncnc2c1c(-c1ccc(Oc3ccccc3)cc1)nn2C1CCCN(CCOCCOCCN2CCC(c3ccc4c(c3)C(=O)N(C3CCC(=O)NC3=O)C4=O)CC2)C1 (stereo not drawn) [Compound 13, 5-(1-(2-(2-(2-(3-(4-amino-3-(4-phenoxyphenyl)-1H-pyrazolo[3,4-d]pyrimidin-1-yl)piperidin-1-yl)ethoxy)ethoxy)ethyl)piperidin-4-yl)-2-(2,6-dioxopiperidin-3-yl)isoindoline-1,3-dione]",> 75,10 to 50,1000 to 10000,1000 to 10000
"Nc1ncnc2c1c(-c1ccc(Oc3ccccc3)cc1)nn2C1CCCN(CCOCCOCCN2CCC(c3ccc4c(c3)CN(C3CCC(=O)NC3=O)C4=O)CC2)C1 (stereo not drawn) [Compound 14, 3-(5-(1-(2-(2-(2-(3-(4-amino-3-(4-phenoxyphenyl)-1H-pyrazolo[3,4-d]pyrimidin-1-yl)piperidin-1-yl)ethoxy)ethoxy)ethyl)piperidin-4-yl)-1-oxoisoindolin-2-yl)piperidine-2,6-dione]",> 90,10 to 50,1000 to 10000,1000 to 10000
"Nc1ncnc2c1c(-c1ccc(Oc3ccccc3)cc1)nn2C1CCN(CCOCCC2CCN(c3ccc4c(c3)C(=O)N(C3CCC(=O)NC3=O)C4=O)CC2)CC1 (stereo not drawn) [Compound 19, 5-(4-(2-(2-(4-(4-amino-3-(4-phenoxyphenyl)-1H-pyrazolo[3,4-d]pyrimidin-1-yl)piperidin-1-yl)ethoxy)ethyl)piperidin-1-yl)-2-(2,6-dioxopiperidin-3-yl)isoindoline-1,3-dione]",> 90,10 to 50,1000 to 10000,1000 to 10000
"Nc1ncnc2c1c(-c1ccc(Oc3ccccc3)cc1)nn2C1CCN(CCOCCC2CCN(c3ccc4c(c3)CN(C3CCC(=O)NC3=O)C4=O)CC2)CC1 (stereo not drawn) [Compound 20, 3-(5-(4-(2-(2-(4-(4-amino-3-(4-phenoxyphenyl)-1H-pyrazolo[3,4-d]pyrimidin-1-yl)piperidin-1-yl)ethoxy)ethyl)piperidin-1-yl)-1-oxoisoindolin-2-yl)piperidine-2,6-dione]",> 90,10 to 50,1000 to 10000,1000 to 10000
"Nc1ncnc2c1c(-c1ccc(Oc3ccccc3)cc1)nn2C1CCCN(CCOCCOCCC2CCN(c3ccc4c(c3)C(=O)N(C3CCC(=O)NC3=O)C4=O)CC2)C1 (stereo not drawn) [Compound 21, 5-(4-(2-(2-(2-(3-(4-amino-3-(4-phenoxyphenyl)-1H-pyrazolo[3,4-d]pyrimidin-1-yl)piperidin-1-yl)ethoxy)ethoxy)ethyl)piperidin-1-yl)-2-(2,6-dioxopiperidin-3-yl)isoindoline-1,3-dione]",> 90,< 10,1000 to 10000,1000 to 10000

# The next lines start with results.
Dmax (BTK) [%],DC50 (BTK) [nM],Structure (SMILES),IC50 (Mino cells) [nM],IC50 (JeKo-1 cells) [nM]
> 90,10 to 50,"Nc1ncnc2c1c(-c1ccc(Oc3ccccc3)cc1)nn2C1CCN(CCOCCN2CCN(c3ccc4c(c3)C(=O)N(C3CCC(=O)NC3=O)C4=O)CC2)CC1 (stereo not drawn) [Compound 5, 5-(4-(2-(2-(4-(4-amino-3-(4-phenoxyphenyl)-1H-pyrazolo[3,4-d]pyrimidin-1-yl)piperidin-1-yl)ethoxy)ethyl)piperazin-1-yl)-2-(2,6-dioxopiperidin-3-yl)isoindoline-1,3-dione]",1000 to 10000,1000 to 10000
> 75,10 to 50,"Nc1ncnc2c1c(-c1ccc(Oc3ccccc3)cc1)nn2C1CCCN(CCOCCN2CCN(c3ccc4c(c3)C(=O)N(C3CCC(=O)NC3=O)C4=O)CC2)C1 (stereo not drawn) [Compound 7, 5-(4-(2-(2-(3-(4-amino-3-(4-phenoxyphenyl)-1H-pyrazolo[3,4-d]pyrimidin-1-yl)piperidin-1-yl)ethoxy)ethyl)piperazin-1-yl)-2-(2,6-dioxopiperidin-3-yl)isoindoline-1,3-dione]",1000 to 10000,1000 to 10000
> 90,10 to 50,"Nc1ncnc2c1c(-c1ccc(Oc3ccccc3)cc1)nn2C1CCCN(CCOCCN2CCN(c3ccc4c(c3)CN(C3CCC(=O)NC3=O)C4=O)CC2)C1 (stereo not drawn) [Compound 8, 3-(5-(4-(2-(2-(3-(4-amino-3-(4-phenoxyphenyl)-1H-pyrazolo[3,4-d]pyrimidin-1-yl)piperidin-1-yl)ethoxy)ethyl)piperazin-1-yl)-1-oxoisoindolin-2-yl)piperidine-2,6-dione]",1000 to 10000,1000 to 10000
> 90,< 10,"Nc1ncnc2c1c(-c1ccc(Oc3ccccc3)cc1)nn2C1CCN(CCOCCOCCN2CCC(c3ccc4c(c3)C(=O)N(C3CCC(=O)NC3=O)C4=O)CC2)CC1 (stereo not drawn) [Compound 9, 5-(1-(2-(2-(2-(4-(4-amino-3-(4-phenoxyphenyl)-1H-pyrazolo[3,4-d]pyrimidin-1-yl)piperidin-1-yl)ethoxy)ethoxy)ethyl)piperidin-4-yl)-2-(2,6-dioxopiperidin-3-yl)isoindoline-1,3-dione]",1000 to 10000,1000 to 10000
> 90,< 10,"Nc1ncnc2c1c(-c1ccc(Oc3ccccc3)cc1)nn2C1CCN(CCOCCOCCN2CCC(c3ccc4c(c3)CN(C3CCC(=O)NC3=O)C4=O)CC2)CC1 (stereo not drawn) [Compound 10, 3-(5-(1-(2-(2-(2-(4-(4-amino-3-(4-phenoxyphenyl)-1H-pyrazolo[3,4-d]pyrimidin-1-yl)piperidin-1-yl)ethoxy)ethoxy)ethyl)piperidin-4-yl)-1-oxoisoindolin-2-yl)piperidine-2,6-dione]",< 1000,1000 to 10000
> 90,10 to 50,"Nc1ncnc2c1c(-c1ccc(Oc3ccccc3)cc1)nn2C1CCN(CCOCCN2CCC(c3ccc4c(c3)C(=O)N(C3CCC(=O)NC3=O)C4=O)CC2)CC1 (stereo not drawn) [Compound 11, 5-(1-(2-(2-(4-(4-amino-3-(4-phenoxyphenyl)-1H-pyrazolo[3,4-d]pyrimidin-1-yl)piperidin-1-yl)ethoxy)ethyl)piperidin-4-yl)-2-(2,6-dioxopiperidin-3-yl)isoindoline-1,3-dione]",1000 to 10000,1000 to 10000
> 75,10 to 50,"Nc1ncnc2c1c(-c1ccc(Oc3ccccc3)cc1)nn2C1CCCN(CCOCCN2CCC(c3ccc4c(c3)C(=O)N(C3CCC(=O)NC3=O)C4=O)CC2)C1 (stereo not drawn) [Compound 15, 5-(1-(2-(2-(3-(4-amino-3-(4-phenoxyphenyl)-1H-pyrazolo[3,4-d]pyrimidin-1-yl)piperidin-1-yl)ethoxy)ethyl)piperidin-4-yl)-2-(2,6-dioxopiperidin-3-yl)isoindoline-1,3-dione]",1000 to 10000,1000 to 10000
> 90,10 to 50,"Nc1ncnc2c1c(-c1ccc(Oc3ccccc3)cc1)nn2C1CCCN(CCOCCN2CCC(c3ccc4c(c3)CN(C3CCC(=O)NC3=O)C4=O)CC2)C1 (stereo not drawn) [Compound 16, 3-(5-(1-(2-(2-(3-(4-amino-3-(4-phenoxyphenyl)-1H-pyrazolo[3,4-d]pyrimidin-1-yl)piperidin-1-yl)ethoxy)ethyl)piperidin-4-yl)-1-oxoisoindolin-2-yl)piperidine-2,6-dione]",1000 to 10000,1000 to 10000
> 90,< 10,"Nc1ncnc2c1c(-c1ccc(Oc3ccccc3)cc1)nn2C1CCN(CCOCCOCCC2CCN(c3ccc4c(c3)C(=O)N(C3CCC(=O)NC3=O)C4=O)CC2)CC1 (stereo not drawn) [Compound 17, 5-(4-(2-(2-(2-(4-(4-amino-3-(4-phenoxyphenyl)-1H-pyrazolo[3,4-d]pyrimidin-1-yl)piperidin-1-yl)ethoxy)ethoxy)ethyl)piperidin-1-yl)-2-(2,6-dioxopiperidin-3-yl)isoindoline-1,3-dione]",1000 to 10000,1000 to 10000
> 90,< 10,"Nc1ncnc2c1c(-c1ccc(Oc3ccccc3)cc1)nn2C1CCN(CCOCCOCCC2CCN(c3ccc4c(c3)CN(C3CCC(=O)NC3=O)C4=O)CC2)CC1 (stereo not drawn) [Compound 18, 3-(5-(4-(2-(2-(2-(4-(4-amino-3-(4-phenoxyphenyl)-1H-pyrazolo[3,4-d]pyrimidin-1-yl)piperidin-1-yl)ethoxy)ethoxy)ethyl)piperidin-1-yl)-1-oxoisoindolin-2-yl)piperidine-2,6-dione]",1000 to 10000,< 1000
